According to ChEMBL document CHEMBL1148809, “Biological evaluation, structure-activity relationships, and three-dimensional quantitative structure-activity relationship studies of dihydro-beta-agarofuran sesquiterpenes as modulators of P-glycoprotein-dependent multidrug resistance” (J Med Chem, 2007):

Columns and labels:
[1] = biological target: ATP-dependent translocase ABCB1 (Homo sapiens, UniProt P08183); assay: (§1) Inhibition of human Pgp-mediated DNR transport in NIH3T3 cells by microplate assay; type: cell-based, Mus musculus
P-gp (ABCB1) = P-gp (ABCB1) (Homo sapiens, UniProt P08183); assay: as §1; type: cell-based, Mus musculus; conditions: mouse, NIH3T3 cells expressing human P-gp, probe DNR; read-out: Imax
[2] = Partition coefficient, log P of the compound; type: physicochemical; conditions: octanol/water

Chain of P-gp (ABCB1) (P08183 whole entry): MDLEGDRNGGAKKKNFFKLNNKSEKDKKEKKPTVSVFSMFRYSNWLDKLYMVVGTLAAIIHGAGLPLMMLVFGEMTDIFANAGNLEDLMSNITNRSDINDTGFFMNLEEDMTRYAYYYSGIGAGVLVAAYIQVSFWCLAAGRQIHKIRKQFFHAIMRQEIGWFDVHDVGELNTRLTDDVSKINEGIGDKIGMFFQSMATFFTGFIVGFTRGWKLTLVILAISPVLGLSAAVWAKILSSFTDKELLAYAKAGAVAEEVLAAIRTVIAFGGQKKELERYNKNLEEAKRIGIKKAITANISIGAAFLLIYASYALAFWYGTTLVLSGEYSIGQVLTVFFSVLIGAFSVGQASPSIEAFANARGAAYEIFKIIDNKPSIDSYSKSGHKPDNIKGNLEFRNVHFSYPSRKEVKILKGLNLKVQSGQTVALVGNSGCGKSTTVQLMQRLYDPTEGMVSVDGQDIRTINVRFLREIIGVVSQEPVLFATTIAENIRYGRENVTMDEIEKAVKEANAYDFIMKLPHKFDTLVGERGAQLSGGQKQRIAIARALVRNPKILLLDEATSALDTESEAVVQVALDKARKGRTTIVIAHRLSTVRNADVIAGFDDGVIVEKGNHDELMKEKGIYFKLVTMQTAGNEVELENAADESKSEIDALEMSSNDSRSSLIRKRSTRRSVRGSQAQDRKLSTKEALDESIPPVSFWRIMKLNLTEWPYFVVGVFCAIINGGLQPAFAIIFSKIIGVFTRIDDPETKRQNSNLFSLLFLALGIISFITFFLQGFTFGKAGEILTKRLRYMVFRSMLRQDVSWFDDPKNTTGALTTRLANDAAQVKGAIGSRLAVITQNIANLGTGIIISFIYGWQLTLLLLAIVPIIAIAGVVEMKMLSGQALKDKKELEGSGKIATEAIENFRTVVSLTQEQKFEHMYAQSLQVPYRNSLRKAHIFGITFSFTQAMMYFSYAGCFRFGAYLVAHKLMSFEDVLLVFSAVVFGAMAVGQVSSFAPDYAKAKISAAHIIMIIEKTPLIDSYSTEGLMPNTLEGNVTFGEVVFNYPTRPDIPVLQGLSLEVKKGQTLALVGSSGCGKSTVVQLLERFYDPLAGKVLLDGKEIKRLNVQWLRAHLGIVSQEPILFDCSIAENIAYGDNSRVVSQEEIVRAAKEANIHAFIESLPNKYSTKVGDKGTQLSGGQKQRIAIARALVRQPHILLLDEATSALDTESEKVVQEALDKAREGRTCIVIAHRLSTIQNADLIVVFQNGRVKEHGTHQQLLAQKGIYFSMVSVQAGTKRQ
Chain of ATP-dependent translocase ABCB1 (P08183 whole entry): as above

Compound | Ki ([1]; read-out: Ki) [nM] | Emax (P-gp (ABCB1)) [%] | logP ([2]; read-out: LogP) | logP [2] | Ki ([1]; read-out: Log Ki (converted)) [nM]
CC(=O)O[C@H]1[C@@H](OC(=O)c2ccccc2)C[C@@](C)(O)[C@]23OC(C)(C)[C@H](C[C@H](OC(=O)c4ccco4)[C@]12C)[C@H]3O | 2500 | 68 | 5.7 |  | 
CC(=O)O[C@H]1[C@@H](OC(=O)c2ccccc2)C[C@@](C)(O)[C@]23OC(C)(C)[C@H](C[C@H](OC(=O)c4ccco4)[C@]12C)[C@H]3OC(=O)c1cccc2ccccc12 | 4590 | 54.8 |  | 9.6 | 
CC(=O)OC[C@]12[C@@H](OC(=O)c3ccco3)C[C@@H]3[C@@H](OC(C)=O)[C@]1(OC3(C)C)[C@](C)(O)C[C@H](OC(=O)c1ccco1)[C@@H]2OC(=O)c1ccco1 | 4510 | 99.4 | 6.5 |  | 
CC(=O)OC[C@]12[C@@H](OC(=O)c3ccccc3)C[C@@H]3[C@@H](OC(=O)c4ccccc4)[C@]1(OC3(C)C)[C@H](C)C[C@H](OC(=O)c1cccnc1)[C@@H]2OC(C)=O | 710 | 85.8 | 8.4 |  | 
CC(=O)OC[C@]12[C@H](OC(=O)c3ccccc3)C(=O)[C@@H]3[C@@H](OC(C)=O)[C@]1(OC3(C)C)[C@H](C)C[C@H](OC(C)=O)[C@@H]2OC(C)=O | 2540 | 62.3 | 6.1 |  | 
CC(=O)OC[C@]12[C@H](OC(=O)c3ccccc3)C(=O)[C@@H]3[C@@H](OC(C)=O)[C@]1(OC3(C)C)[C@H](C)C[C@H](OC(C)=O)[C@@H]2O | 18400 | 91.7 | 5 |  | 
CC(=O)OC[C@]12[C@H](OC(C)=O)C(=O)[C@@H]3[C@@H](OC(C)=O)[C@]1(OC3(C)C)[C@H](C)C[C@H](OC(C)=O)[C@@H]2OC(=O)c1ccccc1 | 5740 | 96.4 | 6.1 |  | 
CC(=O)O[C@H]1C[C@@](C)(O)[C@]23OC(C)(C)[C@H]([C@H](OC(=O)c4ccccc4)[C@H](OC(=O)c4ccccc4)[C@]2(CO)[C@H]1OC(C)=O)[C@H]3OC(C)=O | 7040 | 73 | 6.9 |  | 
CC(=O)O[C@@H]1[C@H]2[C@@H](OC(=O)c3ccccc3)[C@@H](OC(=O)c3ccccc3)[C@]3(CO)[C@@H](OC(=O)c4ccccc4)[C@@H](OC(=O)c4ccccc4)C[C@@H](C)[C@@]13OC2(C)C | 1300 | 39.5 |  | 11.5 | 1660
CC(=O)OC[C@]12[C@H](OC(=O)c3ccccc3)C(=O)[C@@H]3[C@@H](OC(C)=O)[C@]1(OC3(C)C)[C@](C)(O)C[C@H](OC(=O)c1ccccc1)[C@@H]2OC(=O)c1ccccc1 | 1030 | 80 |  | 10 | 
CC(=O)OC[C@]12[C@@H](OC(=O)c3ccccc3)C[C@@H]3[C@@H](OC(C)=O)[C@]1(OC3(C)C)[C@H](C)C[C@H](OC(C)=O)[C@@H]2OC(C)=O | 2360 | 80.8 | 5.7 |  | 
CC(=O)OC[C@]12[C@H](OC(C)=O)C(=O)[C@@H]3[C@@H](OC(C)=O)[C@]1(OC3(C)C)[C@H](C)C[C@H](OC(C)=O)[C@@H]2OC(C)=O | 9830 | 100 | 4 |  | 
CC(=O)O[C@H]1C[C@@](C)(O)[C@]23OC(C)(C)[C@H](C[C@H](OC(=O)c4ccco4)[C@]2(C)[C@H]1OC(C)=O)[C@H]3OC(=O)C(F)(F)F | 12100 | 34 | 4.1 |  | 
CC(=O)O[C@@H]1[C@H]2C[C@H](OC(=O)c3ccco3)[C@]3(C)[C@@H](OC(C)=O)[C@@H](OC(=O)c4ccccc4)C[C@@](C)(O)[C@@]13OC2(C)C | 2920 | 92.7 | 6.1 |  | 
CC(=O)O[C@H]1[C@@H](OC(=O)c2ccccc2)C[C@@](C)(O)[C@]23OC(C)(C)[C@H](C[C@H](OC(=O)c4ccco4)[C@]12C)[C@H]3OC(=O)C(F)(F)F | 1560 | 53.3 | 6.4 |  | 
CC(=O)OC[C@]12[C@@H](OC(=O)c3ccco3)C[C@@H]3[C@@H](OC(=O)c4ccco4)[C@]1(OC3(C)C)[C@](C)(O)C[C@H](OC(C)=O)[C@@H]2OC(C)=O | 2440 | 76.9 | 5.4 |  | 
CC(=O)OC[C@]12[C@@H](OC(=O)c3ccccc3)C[C@@H]3[C@@H](OC(=O)c4ccccc4)[C@]1(OC3(C)C)[C@](C)(O)C[C@H](OC(C)=O)[C@@H]2OC(C)=O | 1500 | 100 | 7.3 |  | 
CCCCCO[C@H]1[C@@H](OC(=O)c2ccco2)C[C@@](C)(O)[C@]23OC(C)(C)[C@H](C[C@H](OC(=O)c4ccco4)[C@]12COC(C)=O)[C@H]3OC(C)=O | 1940 | 91.3 | 6.9 |  | 
CC(=O)OC[C@]12[C@@H](OC(=O)c3ccccc3)C[C@@H]3[C@@H](OC(=O)c4ccccc4)[C@]1(OC3(C)C)[C@](C)(O)C[C@H](OC(=O)c1cccnc1)[C@@H]2OC(C)=O | 580 | 100 | 8.2 |  | 

Compound | Ki ([1]; read-out: Ki) [nM] | Emax (P-gp (ABCB1)) [%] | logP ([2]; read-out: LogP) | logP [2] | Ki ([1]; read-out: Log Ki (converted)) [nM]
CC(=O)OC[C@]12[C@H](OC(=O)c3ccccc3)C(=O)[C@@H]3[C@@H](O)[C@]1(OC3(C)C)[C@](C)(O)C[C@H](OC(C)=O)[C@@H]2OC(=O)c1ccccc1 | 3970 | 74.4 | 7.2 |  | 
CC(=O)OC[C@]12[C@H](OC(C)=O)[C@H](OC(C)=O)[C@@H]3[C@@H](OC(C)=O)[C@]1(O[C@@]3(C)COC(C)=O)[C@](C)(O)[C@@H](OC(C)=O)[C@H](OC(C)=O)[C@@H]2OC(C)=O | 6970 | 31 | 3.6 |  | 
CC(=O)OC[C@]12[C@@H](OC(=O)c3ccccc3)[C@@H](OC(=O)c3ccccc3)[C@@H]3[C@@H](OC(C)=O)[C@]1(OC3(C)C)[C@](C)(O)C[C@H](OC(C)=O)[C@@H]2OC(C)=O | 1740 | 97 | 7.6 |  | 
CC(=O)O[C@@H]1[C@H]2[C@H](O)[C@H](OC(=O)c3ccccc3)[C@]3(C)[C@@H](OC(=O)c4ccccc4)[C@@H](OC(=O)c4ccccc4)C[C@@](C)(O)[C@@]13OC2(C)C | 1210 | 100 | 8.4 |  | 
CC(=O)O[C@H]1[C@@H]2[C@@H](OC(C)=O)[C@]3(OC2(C)C)[C@H](C)C[C@H](OC(=O)c2cccnc2)[C@H](OC(=O)c2ccccc2)[C@@]3(C)[C@H]1OC(=O)c1ccccc1 | 7720 | 92.3 | 8.7 |  | 
CC(=O)O[C@H]1[C@@H]2[C@@H](OC(C)=O)[C@@]3(OC2(C)C)[C@](C)([C@H]1OC(=O)c1ccccc1)[C@@H](OC(=O)c1ccccc1)[C@@H](OC(=O)c1ccccc1)C[C@@]3(C)O | 11300 | 80.7 |  | 9.4 | 
CC(=O)OC[C@]12[C@H](OC(=O)c3ccccc3)[C@H](OC(=O)c3ccccc3)[C@@H]3[C@@H](OC(C)=O)[C@]1(OC3(C)C)[C@H](C)C[C@H](OC(=O)c1ccccc1)[C@@H]2OC(C)=O | 33800 | 100 |  | 10.3 | 
CC(=O)OC[C@]12[C@@H](OC(=O)c3ccccc3)C[C@@H]3[C@@H](OC(C)=O)[C@]1(OC3(C)C)[C@H](C)C[C@H](OC(=O)c1ccccc1)[C@@H]2OC(C)=O | 630 | 88 | 7.7 |  | 
CC(=O)OC[C@]12[C@@H](OC(=O)c3ccccc3)C[C@@H]3[C@@H](OC(C)=O)[C@]1(OC3(C)C)[C@](C)(O)C[C@H](OC(C)=O)[C@@H]2OC(C)=O | 4390 | 85 | 5 |  | 3470
CC(=O)O[C@H]1C[C@@](C)(O)[C@]23OC(C)(C)[C@H]([C@H](OC(=O)c4ccccc4)[C@H](OC(=O)c4ccccc4)[C@]2(C)[C@H]1OC(=O)c1ccccc1)[C@H]3OC(C)=O | 910 | 84.9 |  | 9.2 | 
CC(=O)OC[C@]12[C@H](OC(C)=O)C(=O)[C@@H]3[C@@H](OC(C)=O)[C@]1(OC3(C)C)[C@](C)(O)[C@@H](OC(C)=O)[C@H](OC(C)=O)[C@@H]2OC(=O)c1ccccc1 | 6520 | 53.9 | 6 |  | 302
CC(=O)O[C@H]1C[C@@](C)(O)[C@]23OC(C)(C)[C@H](C[C@H](OC(=O)c4ccco4)[C@]2(C)[C@H]1OC(C)=O)[C@H]3OC(=O)c1ccccc1 | 8940 | 67.9 | 6.1 |  | 
CC(=O)OC[C@]12[C@H](OC(=O)c3ccccc3)C(=O)[C@@H]3[C@@H](OC(C)=O)[C@]1(OC3(C)C)[C@](C)(O)C[C@H](OC(C)=O)[C@@H]2OC(=O)c1ccccc1 | 3010 | 81.1 | 7.7 |  | 
CC(=O)OC[C@@]12[C@@H](OC(=O)c3ccccc3)CC[C@@](C)(O)[C@]13OC(C)(C)[C@H]([C@@H](OC(=O)c1ccccc1)[C@H]2OC(=O)c1ccccc1)[C@H]3OC(C)=O | 1220 | 100 |  | 9.6 | 
CC(=O)OC[C@]12[C@@H](OC(=O)c3ccccc3)[C@@H](OC(=O)c3ccccc3)[C@@H]3[C@@H](OC(C)=O)[C@]1(OC3(C)C)[C@H](C)C[C@H](OC(C)=O)[C@@H]2OC(C)=O | 1710 | 86.2 | 8.3 |  | 
CCCCCO[C@@H]1[C@@H]2[C@@H](OC(C)=O)[C@@]3(OC2(C)C)[C@@](COC(C)=O)([C@@H](OC(C)=O)CC[C@@]3(C)O)[C@@H]1OC(=O)c1ccccc1 | 1830 | 87.7 | 7 |  | 
CC(=O)O[C@H]1[C@@H](OC(=O)c2ccccc2)C[C@@](C)(O)[C@]23OC(C)(C)[C@H](C[C@H](OC(=O)c4ccco4)[C@]12C)[C@H]3OC(=O)C(C)(C)C | 1040 | 90 | 7.3 |  | 
CC(=O)OC[C@]12[C@H](OC(=O)c3ccccc3)C(=O)[C@@H]3[C@@H](OC(C)=O)[C@]1(OC3(C)C)[C@H](C)C[C@H](OC(C)=O)[C@@H]2OC(=O)c1ccccc1 | 1630 | 81.6 | 8.1 |  | 
CCCCCCCCCCCC(=O)O[C@@H]1[C@H]2C[C@H](OC(=O)c3ccco3)[C@]3(C)[C@@H](OC(C)=O)[C@@H](OC(=O)c4ccccc4)C[C@@](C)(O)[C@@]13OC2(C)C | 5160 | 29.2 |  | 11.4 | 
